Assay results published in paper PMC4192806 (Endocrinology and Metabolism, 2014).
No end group written: not given here.

Experiments:
[1] = molecular target: human GLP1R (Homo sapiens, UniProt P43220); assay: CRE-luc luciferase assay in GLP1R and CRE-luc cotransfected HEK293T cells; assay type: cell-based
[2] = molecular target: DPP-IV activity of fetal bovine serum (Bos taurus, UniProt P81425); assay: Stability in 100% FBS, residual activity by GLP1R/CRE-luc luciferase assay; assay type: in vitro ADME; details: FBS incubation, 37℃
DPP-IV activity of fetal bovine serum, sequence (P81425 38-765 limits assumed): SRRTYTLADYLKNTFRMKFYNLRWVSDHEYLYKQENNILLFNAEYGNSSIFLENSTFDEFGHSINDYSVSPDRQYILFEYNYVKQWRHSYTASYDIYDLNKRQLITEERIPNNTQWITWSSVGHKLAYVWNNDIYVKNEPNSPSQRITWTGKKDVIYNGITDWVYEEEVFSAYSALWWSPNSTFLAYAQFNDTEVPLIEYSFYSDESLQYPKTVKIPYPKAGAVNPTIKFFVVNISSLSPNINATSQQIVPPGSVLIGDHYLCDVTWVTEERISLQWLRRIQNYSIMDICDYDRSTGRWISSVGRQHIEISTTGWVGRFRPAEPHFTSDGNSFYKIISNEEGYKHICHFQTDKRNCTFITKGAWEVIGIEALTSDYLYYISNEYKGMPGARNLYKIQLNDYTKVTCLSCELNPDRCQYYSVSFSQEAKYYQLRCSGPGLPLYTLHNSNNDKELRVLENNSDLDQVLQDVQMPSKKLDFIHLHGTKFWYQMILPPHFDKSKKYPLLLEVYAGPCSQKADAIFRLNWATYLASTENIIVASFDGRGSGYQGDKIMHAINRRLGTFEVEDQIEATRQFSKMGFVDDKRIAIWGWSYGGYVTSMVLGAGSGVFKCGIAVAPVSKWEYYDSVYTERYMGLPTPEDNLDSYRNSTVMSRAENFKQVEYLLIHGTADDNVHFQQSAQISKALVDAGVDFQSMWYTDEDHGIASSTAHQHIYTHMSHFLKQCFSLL

human GLP1R, sequence (P43220 24-463): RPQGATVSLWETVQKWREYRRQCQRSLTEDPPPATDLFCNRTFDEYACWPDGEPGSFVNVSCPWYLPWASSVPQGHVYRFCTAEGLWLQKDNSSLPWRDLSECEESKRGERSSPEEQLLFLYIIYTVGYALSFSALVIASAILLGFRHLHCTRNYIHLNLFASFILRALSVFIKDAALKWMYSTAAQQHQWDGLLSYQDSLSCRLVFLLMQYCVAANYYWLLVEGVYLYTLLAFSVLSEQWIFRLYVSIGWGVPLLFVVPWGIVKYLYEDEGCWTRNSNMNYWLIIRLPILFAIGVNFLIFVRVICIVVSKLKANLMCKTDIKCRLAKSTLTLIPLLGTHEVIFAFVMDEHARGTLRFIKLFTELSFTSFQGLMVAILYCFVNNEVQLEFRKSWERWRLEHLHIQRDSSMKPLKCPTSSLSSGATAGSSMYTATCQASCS

HAEGTFTNDMTNYLEEKAAKEFVGWLIKGR-NH2 [xGLP, Xenopus GLP-1, reference compound]
EC50 [1]: 0.832 nM

HSEGTFTNDMTNYLEEKAAKEFVGWLIKGGPSSGAPPPS [xGLP-E4]
EC50 [1]: 0.155 nM | stability in serum (overall comparison, words) [2]: more stable in serum than wild-type human and xGLP
